Results published in ChEMBL document CHEMBL1157764, “Conserved high activity binding peptides are involved in adhesion of two detergent-resistant membrane-associated merozoite proteins to red blood cells during invasion” (J Med Chem, 2010).
Calls of active or inactive are those of the source. The rule behind the calls is not given here. Where a SMILES comes first, the peptide text is derived from it. [ ]: non-standard residue; d: D form. Ahp(2) = CCCCC[C@H](N)C(=O)O

Experiments:
Homo sapiens [1] = species on record: Homo sapiens; assay: Binding affinity to RBC membrane receptor in 1 mg/mL chymotrypsin pretreated human RBCs relative to untreated RBCs
Homo sapiens [2] = species on record: Homo sapiens; assay: Binding affinity to RBC membrane receptor in 150 uU/mL neuraminidase pretreated human RBCs relative to untreated RBCs
Plasmodium falciparum [3] = assay: Antiplasmodial activity against Plasmodium falciparum FCB2 assessed as inhibition of merozoite invasion of human RBCs at 100 uM after 18 hrs using hydroethidine staining by flow cytometry; format: functional; settings: FCB2, 18 h
Homo sapiens [4] = species on record: Homo sapiens; assay: Binding affinity to RBC membrane receptor in 1 mg/mL trypsin pretreated human RBCs relative to untreated RBCs
Plasmodium falciparum [5] = assay: Antiplasmodial activity against Plasmodium falciparum FCB2 assessed as inhibition of merozoite invasion of human RBCs at 200 uM after 18 hrs using hydroethidine staining by flow cytometry; format: functional; settings: FCB2, 18 h
Homo sapiens [6] = species on record: Homo sapiens; assay: Binding affinity to RBC membrane receptor in human RBCs assessed as specific binding activity measured as ratio of specifically bound peptide/added peptide by gamma counter
[7] = Binding affinity to RBC membrane receptor in human RBCs assessed as dissociation constant by gamma counter
Homo sapiens [8] = species on record: Homo sapiens; assay: Binding affinity of radio labeled compound to 85 kDa RBC membrane receptor in human RBCs cross-linked with bis-(sulfosuccinimidyl)suberate by autoradiography using SDS-PAGE
Homo sapiens [9] = species on record: Homo sapiens; assay: Binding affinity of radio labeled compound to 78 kDa RBC membrane receptor in human RBCs cross-linked with bis-(sulfosuccinimidyl)suberate by autoradiography using SDS-PAGE

| Molecule | Activity (Homo sapiens [1]) [%] | Activity (Homo sapiens [2]) [%] | Activity (Homo sapiens [4]) [%] | Activity (Homo sapiens [6]) [%] | Kd [7] [nM] | Activity (Homo sapiens [8]) | Activity (Homo sapiens [9]) | inhibition at 100 µM (Plasmodium falciparum [3]) [%] | inhibition at 200 µM (Plasmodium falciparum [5]) [%] |
| --- | --- | --- | --- | --- | --- | --- | --- | --- | --- |
| H-FVLAPDEMVYLFYHGNEKKN-OH | 116 | 5 | 31 | > 2 | 850 |  |  | 49 | 9 |
| H-RLKENKDYDVVSSIIQHLDN-OH | 94 | 55 | 18 | > 2 | 730 | Active | Active | 42 | 7 |
| H-NYRRRKRITELRKILVEKLR-OH | 7 | 68 | 43 | > 2 | 1700 | Active | Active | 47 | 15 |
| CC[C@H](C)[C@H](NC(=O)[C@H](CO)NC(=O)[C@H](CCCCN)NC(=O)[C@@H](N)CC(=O)O)C(=O)N[C@H](C(=O)N[C@@H](Cc1cnc[nH]1)C(=O)N[C@@H](Cc1ccccc1)C(=O)N[C@@H](Cc1ccc(O)cc1)C(=O)N[C@@H](CS)C(=O)N[C@@H](CCC(=O)O)C(=O)N[C@@H](CS)C(=O)N[C@@H](CC(N)=O)C(=O)N[C@H](C(=O)N[C@@H](CC(N)=O)C(=O)N[C@@H](CC(N)=O)C(=O)N[C@@H](CC(N)=O)C(=O)N[C@H](C(=O)N[C@H](C(=O)N[C@@H](CCCCN)C(=O)N[C@H](C(=O)O)C(C)C)[C@@H](C)CC)C(C)C)C(C)C)[C@@H](C)CC (H-DKSIIHFYCECNVNNNVIKV-OH) |  |  |  | > 2 |  |  |  |  |  |
| CC(C)[C@H](NC(=O)[C@H](Cc1cnc[nH]1)NC(=O)[C@@H](NC(=O)[C@H](CCCCN)NC(=O)[C@H](CCC(=O)O)NC(=O)[C@@H](NC(=O)[C@H](CC(N)=O)NC(=O)[C@H](CC(N)=O)NC(=O)[C@H](CCCNC(=N)N)NC(=O)[C@H](Cc1ccccc1)NC(=O)[C@H](C)NC(=O)[C@H](Cc1cnc[nH]1)NC(=O)[C@@H](NC(=O)[C@@H](NC(=O)[C@H](CO)NC(=O)[C@H](CCC(=O)O)NC(=O)[C@H](CC(N)=O)NC(=O)[C@@H](N)CO)C(C)C)[C@@H](C)O)[C@@H](C)O)[C@@H](C)O)C(=O)N[C@@H](Cc1cnc[nH]1)C(=O)N[C@@H](CCCCN)C(=O)N[C@@H](Cc1ccc(O)cc1)C(=O)O |  |  |  | > 2 |  |  |  |  |  |
| CC[C@H](C)[C@H](N)C(=O)N[C@@H](Cc1cnc[nH]1)C(=O)N[C@@H](CCCCN)C(=O)N[C@@H](CCCNC(=N)N)C(=O)N[C@@H](CS)C(=O)N[C@@H](CC(N)=O)C(=O)N[C@@H](CC(=O)O)C(=O)N[C@@H](CC(=O)O)C(=O)N[C@H](C(=O)N[C@@H](CCC(=O)O)C(=O)N[C@@H](CCCCN)C(=O)N[C@@H](CCCCN)C(=O)N[C@@H](CS)C(=O)N[C@@H](CC(N)=O)C(=O)NCC(=O)N[C@@H](CC(N)=O)C(=O)N[C@@H](CC(N)=O)C(=O)N[C@@H](CCCCN)C(=O)N[C@@H](CS)C(=O)N[C@H](C(=O)N[C@@H](Cc1ccc(O)cc1)C(=O)O)[C@@H](C)CC)[C@@H](C)CC (H-IHKRCNDDIEKKCNGNNKCIY-OH) |  |  |  | > 2 |  |  |  |  |  |
| CC[C@H](C)[C@H](NC(=O)[C@H](CC(C)C)NC(=O)[C@H](CS)NC(=O)[C@@H](NC(=O)[C@H](CC(C)C)NC(=O)[C@H](Cc1ccccc1)NC(=O)[C@H](CCC(N)=O)NC(=O)[C@H](CC(C)C)NC(=O)[C@H](CC(C)C)NC(=O)[C@H](CC(C)C)NC(=O)[C@@H](NC(=O)[C@H](Cc1cnc[nH]1)NC(=O)[C@H](CC(C)C)NC(=O)[C@@H](NC(=O)[C@H](Cc1ccccc1)NC(=O)[C@H](Cc1ccccc1)NC(=O)[C@@H]1CCCN1C(=O)[C@@H](NC(=O)[C@H](CCCCN)NC(=O)[C@@H](N)CCSC)[C@@H](C)CC)[C@@H](C)CC)[C@@H](C)CC)[C@@H](C)CC)C(=O)N[C@@H](Cc1ccc(O)cc1)C(=O)O |  |  |  | > 2 |  |  |  |  |  |
| CC[C@H](C)[C@H](NC(=O)[C@@H](NC(=O)[C@H](Cc1ccc(O)cc1)NC(=O)[C@H](CCC(=O)O)NC(=O)[C@H](CCCCN)NC(=O)[C@H](CCC(=O)O)NC(=O)[C@H](Cc1ccc(O)cc1)NC(=O)[C@H](CO)NC(=O)[C@H](Cc1ccccc1)NC(=O)[C@H](Cc1ccc(O)cc1)NC(=O)[C@H](CO)NC(=O)[C@@H](NC(=O)[C@H](CCSC)NC(=O)[C@H](Cc1ccc(O)cc1)NC(=O)[C@@H](NC(=O)CNC(=O)[C@H](CCCCN)NC(=O)[C@@H]1CCCN1C(=O)[C@@H](N)Cc1ccccc1)[C@@H](C)O)[C@@H](C)O)C(C)C)C(=O)N[C@@H](CO)C(=O)O |  |  |  | > 2 |  |  |  |  |  |
| H-KYILVCENHSQNYINVVDQE-OH |  |  |  | > 2 |  |  |  |  |  |
| CC[C@H](C)[C@H](NC(=O)[C@H](CCCCN)NC(=O)CNC(=O)CNC(=O)[C@H](Cc1ccc(O)cc1)NC(=O)[C@H](CC(=O)O)NC(=O)[C@H](CO)NC(=O)[C@H](CC(C)C)NC(=O)[C@@H](N)CCCNC(=N)N)C(=O)N[C@@H](CC(C)C)C(=O)N[C@H](C(=O)N[C@@H](CCCCN)C(=O)NCC(=O)N[C@H](C(=O)N[C@@H](CC(N)=O)C(=O)N[C@@H](C)C(=O)N[C@@H](CCC(N)=O)C(=O)N[C@@H](CC(N)=O)C(=O)N[C@H](C(=O)N[C@@H](CC(C)C)C(=O)O)[C@H](C)O)[C@@H](C)O)C(C)C | 79 | 67 | 11 | > 2 | 900 |  |  | 34 | 9 |
| CCCCC[C@H](NC(=O)[C@H](Cc1ccc(O)cc1)NC(=O)[C@@H](NC(=O)[C@H](CCCNC(=N)N)NC(=O)[C@H](CCCNC(=N)N)NC(=O)[C@H](CCC(N)=O)NC(=O)[C@@H]1CCCN1C(=O)[C@@H](NC(=O)[C@@H](NC(=O)[C@H](Cc1ccccc1)NC(=O)[C@@H](NC(=O)[C@H](CC(=O)O)NC(=O)[C@H](CC(N)=O)NC(=O)[C@H](CCC(=O)O)NC(=O)CNC(=O)[C@H](Cc1ccccc1)NC(=O)[C@H](CC(C)C)NC(=O)[C@@H](N)Cc1ccc(O)cc1)[C@@H](C)CC)C(C)C)C(C)C)[C@@H](C)CC)C(=O)N[C@H](C(=O)N[C@@H](CCC(=O)O)C(=O)O)[C@@H](C)O (H-YLFGENDIFVVPQRRIY[Ahp(2)]TE-OH) |  |  |  | > 2 |  |  |  |  |  |
| H-DEVFGSQSSNFNIFDSNNTDY-OH |  |  |  | > 2 |  |  |  |  |  |
| H-LFETFDPQYLNTEFNGVSHY-OH |  |  |  | > 2 |  |  |  |  |  |

More lines, main results first:

| Activity (Homo sapiens [1]) [%] | Activity (Homo sapiens [2]) [%] | Activity (Homo sapiens [4]) [%] | Activity (Homo sapiens [6]) [%] | Kd [7] [nM] | Activity (Homo sapiens [8]) | Activity (Homo sapiens [9]) | Molecule | inhibition at 100 µM (Plasmodium falciparum [3]) [%] | inhibition at 200 µM (Plasmodium falciparum [5]) [%] |
| --- | --- | --- | --- | --- | --- | --- | --- | --- | --- |
| 37 | 23 | 55 | > 2 | 250 |  |  | CC(C)C[C@H](NC(=O)[C@H](CCCCN)NC(=O)[C@H](Cc1ccc(O)cc1)NC(=O)[C@H](CC(C)C)NC(=O)CNC(=O)[C@H](CC(=O)O)NC(=O)[C@H](CO)NC(=O)[C@H](CO)NC(=O)[C@H](Cc1ccc(O)cc1)NC(=O)[C@H](CCCCN)NC(=O)[C@H](CC(C)C)NC(=O)[C@H](Cc1cnc[nH]1)NC(=O)[C@H](CO)NC(=O)[C@H](CO)NC(=O)[C@@H]1CCCN1C(=O)[C@@H](NC(=O)[C@H](CCCCN)NC(=O)[C@H](CS)NC(=O)[C@@H](NC(=O)[C@@H](N)CCCCN)[C@H](C)O)C(C)C)C(=O)O | 45 | 13 |
| 31 | 17 | 83 | > 2 | 900 | Active | Active | H-YFFEYELRKKTQSFRNKNSI-OH | 40 | 10 |
| 33 | 12 | 87 | > 2 | 1200 | Active | Active | H-ASLKETMNKIDTIEKKIEEFY-OH | 40 | 8 |
|  |  |  | > 2 |  |  |  | CC[C@H](C)[C@H](NC(=O)[C@H](CC(N)=O)NC(=O)[C@@H](NC(=O)[C@H](CC(N)=O)NC(=O)CNC(=O)[C@H](CC(=O)O)NC(=O)[C@H](CCCCN)NC(=O)[C@@H](NC(=O)[C@@H](NC(=O)[C@@H](NC(=O)[C@@H]1CCCN1C(=O)[C@H](CCC(=O)O)NC(=O)[C@H](CCC(=O)O)NC(=O)[C@H](CC(N)=O)NC(=O)[C@@H](N)CCCCN)C(C)C)[C@@H](C)CC)C(C)C)[C@@H](C)CC)C(=O)N[C@@H](CCCCN)C(=O)N[C@@H](CO)C(=O)N[C@@H](C)C(=O)N[C@@H](CC(C)C)C(=O)N[C@@H](CC(C)C)C(=O)N[C@@H](Cc1ccc(O)cc1)C(=O)O |  |  |
|  |  |  | > 2 |  |  |  | CC[C@H](C)[C@H](NC(=O)[C@H](CC(=O)O)NC(=O)[C@H](CCCCN)NC(=O)[C@H](CCCNC(=N)N)NC(=O)[C@H](Cc1ccccc1)NC(=O)[C@H](CCCNC(=N)N)NC(=O)[C@@H](NC(=O)[C@@H](NC(=O)[C@@H]1CCCN1C(=O)[C@H](CC(C)C)NC(=O)CN)[C@H](C)O)[C@@H](C)CC)C(=O)N[C@@H](CO)C(=O)N[C@H](C(=O)N[C@@H](CCC(=O)O)C(=O)N[C@@H](CC(N)=O)C(=O)N[C@@H](CC(C)C)C(=O)N[C@H](C(=O)N[C@@H](Cc1ccc(O)cc1)C(=O)N[C@@H](CC(C)C)C(=O)N[C@@H](CC(N)=O)C(=O)O)[C@@H](C)O)C(C)C |  |  |
|  |  |  | > 2 |  |  |  | CC[C@H](C)[C@H](NC(=O)[C@H](Cc1ccc(O)cc1)NC(=O)[C@H](CCCCN)NC(=O)[C@H](CC(N)=O)NC(=O)[C@@H](N)CCCCN)C(=O)N[C@@H](CO)C(=O)N[C@@H](CC(C)C)C(=O)N[C@@H](Cc1ccc(O)cc1)C(=O)N[C@@H](CC(N)=O)C(=O)N[C@@H](CCCCN)C(=O)N[C@H](C(=O)N[C@@H](CCCCN)C(=O)N[C@H](C(=O)N[C@H](C(=O)N[C@@H](CCSC)C(=O)N1CCC[C@H]1C(=O)N[C@@H](CCC(=O)O)C(=O)N[C@@H](CC(C)C)C(=O)N[C@@H](Cc1ccccc1)C(=O)N[C@@H](CC(=O)O)C(=O)O)[C@@H](C)O)[C@H](C)O)C(C)C |  |  |
